How the values were obtained:
[1] = system: rat primary cardiomyocytes; assay: MTT viability of rat primary cardiomyocytes after cold ischemia-reperfusion; format: cell-based
Description: (§1) MTT, or […] (Sigma), is a molecule that bonds to mitochondrial dehydrogenases (DH) in the presence of oxidized nicotimamide adenine dinucleotide and nicotimamide adenine dinucleotide phosphate (NAD+ and NADP+) coenzymes to form insoluble formazan crystals of violet color. The resulting violet color is evidence of mitochrondrial function and thus of cell viability. The crystals were dissolved in a permeabilization solution (dimethyl sulfoxide or DMSO, Sigma). This solubilization of formazan also gives rise to cell lysis. The plates were read by spectrophotometry (Multiskan Ex, Thermo, Electron Corporation®) at 550 nanometers (nm).
(§2) The purpose of this protocol was to determine the potentially protective effect of cyclosporin and/or taxol on cardiomyocytes placed in a cold ischemia situation at 4° C. for 24 hours (h), followed by reperfusion for 24 h, at the end of which the viability test (the MTT test) was performed. A “sham” group was not subjected to the ischemia—reperfusion sequence. At each of the doses tested, four different experiments were performed, and during each experiment, eight different cell wells were tested simultaneously.
(§3) Statistical analysis consisted in comparing means (Student's test between the group under study and the control group).

H9c2 cardiomyocytes = assay: MTT viability of H9c2 cardiomyocytes after cold ischemia-reperfusion; format: cell-based, rat
Description: This was a conventional model for culturing rat cardiomyocytes. The H9c2 cardiac cells (ATTC®) came from rat heart ventricles transfected with a pSV3 plasmid containing the SV40 gene. The cells were cultivated in high glucose Dulbecco's modified Eagle's medium (DMEM) (PAA®), with an additional 10% of Mycoplex FBS (PAA®) and 1% penicillin-streptomycin. The medium was changed every two days and re-seeding was performed at 70%-80% confluence.
as §1, §2, §3
The viability of primary cardiomyocytes was evaluated after 24 h of cold ischemia and 24 h of reperfusion.
As before, the viability of H9c2 cardiomyocytes was evaluated after 24 h cold ischemia and 24 h reperfusion.

isolated whole rat heart [2] = assay: Functional recovery (LVDevP×HR) of perfused isolated rat heart (Langendorff mode) after cold ischemia-reperfusion; settings: 1 μM in Celsior solution; 8 h cold ischemia at 4° C. + 1 h reperfusion at 37° C.; p<0.01
Description: The rats were anesthetized by intraperitoneal injection of sodium pentobarbital (50 milligrams per kilogram (mg/kg)). They were then placed in dorsal decubitus. After isolating the femoral vein, heparin was administered intravenously (200 IU/kg). An abdominal incision was made, followed by a thoracic incision. The sternum was pulled towards the rat's head, using a clamp, and the diaphragm was dissected. The heart isolated from its pericardium was excised and stopped in the hypothermic Celsior solution. […] The hearts were then placed at 4° C. in the same solution for 8 h (the cold ischemia stage), prior to reperfusion (the reanimation stage).
After 8 h of cold ischemia, each heart was fastened by its aorta to a cannula for continuous retrograde perfusion using Krebs Henseleit (KH, having the following composition in mM: glucose 11.0; NaCl 118.5: KCl 4.75; MgSO4 1.19, KH2PO4 1.2; NaHCO3 24.0; CaCl2 1.4). A constant pressure of 100 centimeters (cm) of H2O (corresponding to 74 millimeters of mercury (mmHg)) was imposed. The KH solution was bubbled continuously with 95% O2+5% CO2, in order to maintain its pH at 7.4.
A latex balloon was installed in the left ventricle and connected to a pressure sensor previously calibrated by internal calibration (0 to 200 mmHg). At the beginning of reperfusion, the balloon was inflated in order to obtain a telediastolic pressure of about 5 mmHg. […]

isolated whole rat heart [3] = assay: Myocardial necrosis (size of infarctus, TTC dye) of isolated rat heart after cold ischemia-reperfusion; settings: 1 μM in Celsior solution, 8 h cold ischemia at 4° C. then reperfusion
Description: The rats were anesthetized by intraperitoneal injection of sodium pentobarbital (50 milligrams per kilogram (mg/kg)). They were then placed in dorsal decubitus. After isolating the femoral vein, heparin was administered intravenously (200 IU/kg). An abdominal incision was made, followed by a thoracic incision. The sternum was pulled towards the rat's head, using a clamp, and the diaphragm was dissected. The heart isolated from its pericardium was excised and stopped in the hypothermic Celsior solution. […] The hearts were then placed at 4° C. in the same solution for 8 h (the cold ischemia stage), prior to reperfusion (the reanimation stage). After 8 h of cold ischemia, each heart was fastened by its aorta to a cannula for continuous retrograde perfusion using Krebs Henseleit (KH, having the following composition in mM: glucose 11.0; NaCl 118.5: KCl 4.75; MgSO4 1.19, KH2PO4 1.2; NaHCO3 24.0; CaCl2 1.4). A constant pressure of 100 centimeters (cm) of H2O (corresponding to 74 millimeters of mercury (mmHg)) was imposed. […] For each slice, the ratio AN/AR was expressed as a percentage, representing the size of the infarctus. The sum of the infarctuses in all of the sections belonging to the same left ventricle gave the quantity of necrosis for the heart in question. […] At the end of cold ischemia, the hearts were reperfused and the size of infarctus was analyzed histologically after using TTC dye.

[4] = 1 μM, 5 μM and 10 μM in MM, 24 h cold ischemia + 24 h reperfusion
[5] = tested 0.25-10 μM in St. Thomas basal solution, 24 h cold ischemia + 24 h reperfusion

CC(=O)O[C@H]1C(=O)[C@@]2(C)[C@H]([C@H](OC(=O)c3ccccc3)[C@]3(O)C[C@H](OC(=O)[C@H](O)[C@@H](NC(=O)c4ccccc4)c4ccccc4)C(C)=C1C3(C)C)[C@]1(OC(C)=O)CO[C@@H]1C[C@@H]2O [taxol, paclitaxel]
cardioprotective effect when added singly to LYPS, relative to "MM" reference group [1, 4]: adds nothing in terms of cardioprotective effect | cardiomyocyte viability increased (MTT) relative to control group ([1]; agent at optimum concentration around 1 μM in St. Thomas basal solution, 24 h cold ischemia at 4° C. + 24 h reperfusion, p<0.01): about 25% | optimum concentration for increasing cardiomyocyte viability [1, 5]: around 1 μM | cardioprotective effect when added singly to LYPS, relative to "MM" reference group (H9c2 cardiomyocytes; [4]): adds nothing in terms of cardioprotective effect | cardiomyocyte viability increased (MTT) relative to control group (H9c2 cardiomyocytes; agent at optimum concentration around 1 μM in St. Thomas basal solution, 24 h cold ischemia at 4° C. + 24 h reperfusion, p<0.001): about 90% | optimum concentration for increasing cardiomyocyte viability (H9c2 cardiomyocytes; [5]): around 1 μM | improvement in LVDevP×HR compared with the control group (isolated whole rat heart [2]): 25% | size of infarctus (AN/AR), % of the zone at risk (isolated whole rat heart [3]): 8.7%

From patent US10440947B2, “Aqueous solution for preserving an organ and uses during hypothermic ischemia” (UNIVERSITE CLAUDE BERNARD LYON I, priority 2013, dated 2019)
